Data from ChEMBL document CHEMBL1131932, “Simplification of adenophostin A defines a minimal structure for potent glucopyranoside-based mimics of D-myo-inositol 1,4,5-trisphosphate” (Bioorg Med Chem Lett, 1999).

Organism: Rattus norvegicus
Assay: Effect on [Ca2+] efflux in rat hepatocytes
Assay type: functional
Conditions: Hepatocyte

| Structure (SMILES) | EC50 |
| --- | --- |
| O=P(O)(O)O[C@@H]1[C@H](O)[C@H](O)[C@@H](OP(=O)(O)O)[C@H](OP(=O)(O)O)[C@H]1O [INS(1,4,5)P3] | 329 nM |
| O=P(O)(O)O[C@@H]1[C@H](O)[C@@H](O[C@@H]2COC[C@@H]2OP(=O)(O)O)O[C@@H](CO)[C@H]1OP(=O)(O)O | 194 nM |
